The values below are quoted from earlier work in US12168054B2 (SYNDAX PHARMACEUTICALS, INC., priority 2017, dated 2024).

One series concerns histone acetylation. To be noted: following the administration of entinostat.
For series [1] the following is noted: in vivo.

For `Nc1ccccc1NC(=O)c1ccc(CNC(=O)OCc2cccnc2)cc1` [Entinostat, N-(2-aminophenyl)-4-[N-(pyridine-3-yl)methoxycarbonylamino-methyl]-benzamide], in the series with histone acetylation, the “persistence of changes in histone acetylation following administration” value was “persist for several weeks”. Moreover, in series [1], the half-life result was “about 100 hours”.
